Measurements reported in PubChem BioAssay (NCI).
“And” between values parts separate entries of the source, which are not always exact repeats. Equal values may be shown once.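 Where inhibition never reached the appropriate level, the endpoint shown equals the highest concentration tested. Otherwise, values were interpolated linearly from a five-concentration, 48-hour dose response in 96-well plates. GI50 is the concentration that inhibits growth by half. TGI is the concentration that stops growth completely.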

Columns and labels:
Assay in all cases: growth of human tumour cells (NCI), 48 h
DU-145 prostate = test system: DU-145 prostate
SK-OV-3 ovarian = test system: SK-OV-3 ovarian
MCF7 breast = test system: MCF7 breast
NCI/ADR-RES ovarian = test system: NCI/ADR-RES ovarian
SF-268 CNS = test system: SF-268 CNS
NCI-H226 lung = test system: NCI-H226 lung
UO-31 renal = test system: UO-31 renal
786-0 renal = test system: 786-0 renal
SN12C renal = test system: SN12C renal

C[C@@H]1CCN(C(=O)CC#N)C[C@@H]1N(C)c1ncnc2[nH]ccc12
GI50 (DU-145 prostate): > 100 µM | TGI (DU-145 prostate): > 100 µM | GI50 (SK-OV-3 ovarian): 90.9 µM | TGI (SK-OV-3 ovarian): > 100 µM | GI50 (MCF7 breast): > 100 µM | TGI (MCF7 breast): > 100 µM | GI50 (NCI/ADR-RES ovarian): > 100 µM | TGI (NCI/ADR-RES ovarian): > 100 µM | GI50 (SF-268 CNS): 73.1 µM | TGI (SF-268 CNS): > 100 µM | GI50 (NCI-H226 lung): 20.9 µM | TGI (NCI-H226 lung): > 100 µM | GI50 (UO-31 renal): 31.3 µM | TGI (UO-31 renal): > 100 µM

N#Cc1nc(Cc2ccccc2)oc1N
TGI (DU-145 prostate): > 100 µM | TGI (SK-OV-3 ovarian): > 100 µM | TGI (MCF7 breast): > 100 µM | TGI (786-0 renal): > 100 µM | TGI (SF-268 CNS): > 100 µM | TGI (SN12C renal): > 100 µM | TGI (NCI-H226 lung): > 100 µM | TGI (UO-31 renal): > 100 µM

CCOC(=O)c1ccc(Nc2nc3ccc(C(F)(F)F)cc3nc2-c2ccccc2)cc1
TGI (DU-145 prostate): > 100 µM | TGI (MCF7 breast): > 100 µM | TGI (NCI/ADR-RES ovarian): > 100 µM | TGI (786-0 renal): > 100 µM | TGI (SF-268 CNS): > 100 µM | TGI (SN12C renal): > 100 µM | TGI (NCI-H226 lung): > 100 µM | TGI (UO-31 renal): > 100 µM

Cc1cc2nc3c(C(O)CO)nn(-c4ccccc4)c3nc2cc1C (stereo not given)
TGI (DU-145 prostate): 33.1 µM | TGI (MCF7 breast): 47.3 µM | TGI (NCI/ADR-RES ovarian): 44.7 µM | TGI (786-0 renal): 42.8 µM | TGI (SF-268 CNS): 63.3 µM | TGI (SN12C renal): 32.4 µM | TGI (NCI-H226 lung): 98.2 µM | TGI (UO-31 renal): 36.1 µM

C=CCC1(O)c2cccc(O)c2C(=O)c2cccc(O)c21 (stereo not given)
TGI (DU-145 prostate): 54.5 µM | TGI (MCF7 breast): 76.9 µM | TGI (NCI/ADR-RES ovarian): 40.2 µM | TGI (786-0 renal): 46.1 µM | TGI (SF-268 CNS): 85.4 µM | TGI (NCI-H226 lung): 74.3 µM | TGI (UO-31 renal): 52.8 µM

O=S(=O)(NC(c1ccccc1)(c1cc2ccccc2[nH]1)c1cc2ccccc2n1S(=O)(=O)c1ccccc1)c1ccccc1 (stereo not given)
TGI (DU-145 prostate): > 100 µM | TGI (SK-OV-3 ovarian): 92.4 µM | TGI (NCI/ADR-RES ovarian): > 100 µM | TGI (786-0 renal): > 100 µM | TGI (SF-268 CNS): > 100 µM | TGI (NCI-H226 lung): > 100 µM | TGI (UO-31 renal): > 100 µM

O=C(CN=C(CN(c1ccccc1)c1ccccc1)Oc1c([N+](=O)[O-])cc([N+](=O)[O-])cc1[N+](=O)[O-])N1CCNCC1
TGI (DU-145 prostate): > 100 µM | TGI (SK-OV-3 ovarian): > 100 µM | TGI (MCF7 breast): > 100 µM | TGI (786-0 renal): > 100 µM | TGI (SF-268 CNS): > 100 µM | TGI (SN12C renal): > 100 µM | TGI (NCI-H226 lung): > 100 µM

OCCCN(CCc1ccc(Cl)c(Cl)c1)CCN1CCCC1
TGI (DU-145 prostate): > 100 µM | TGI (SK-OV-3 ovarian): > 100 µM | TGI (MCF7 breast): 79.9 µM | TGI (NCI/ADR-RES ovarian): > 100 µM | TGI (786-0 renal): 60.4 µM | TGI (SF-268 CNS): > 100 µM | TGI (SN12C renal): > 100 µM | TGI (UO-31 renal): > 100 µM

C(/C=N/NC1=NCCN1)=N\NC1=NCCN1
TGI (SK-OV-3 ovarian): > 100 µM | TGI (MCF7 breast): > 100 µM | TGI (NCI/ADR-RES ovarian): > 100 µM | TGI (786-0 renal): > 100 µM | TGI (SF-268 CNS): > 100 µM | TGI (NCI-H226 lung): > 100 µM | TGI (UO-31 renal): > 100 µM

C/C(=N/NC(=S)N(Cc1ccccn1)Cc1ccccn1)c1cnccn1
TGI (DU-145 prostate): > 33.3 µM | TGI (SK-OV-3 ovarian): 4.27 µM | TGI (MCF7 breast): > 100 µM | TGI (786-0 renal): 7.97 µM | TGI (SF-268 CNS): 14 µM | TGI (SN12C renal): 12.9 µM | TGI (NCI-H226 lung): 0.157 µM | TGI (UO-31 renal): 0.525 µM

FC(F)(F)C1(C(F)(F)F)OC(Cl)(Cl)C(Cl)(Cl)O1
TGI (DU-145 prostate): > 10 µM | TGI (SK-OV-3 ovarian): > 10 µM | TGI (MCF7 breast): > 10 µM | TGI (NCI/ADR-RES ovarian): > 10 µM | TGI (786-0 renal): > 10 µM | TGI (SF-268 CNS): > 10 µM | TGI (NCI-H226 lung): > 10 µM

C=CCOc1ccc(C2c3c([nH][nH]c3=O)CC(C)(O)C2C(=O)OC)cc1OC (stereo not given)
TGI (DU-145 prostate): > 100 µM | TGI (MCF7 breast): > 100 µM | TGI (NCI/ADR-RES ovarian): > 100 µM | TGI (786-0 renal): > 100 µM | TGI (SF-268 CNS): > 100 µM | TGI (SN12C renal): > 100 µM | TGI (UO-31 renal): > 100 µM

CC(C)(C)OC(=O)/C=C/C(=O)O/C=C/[N+](=O)[O-]
TGI (DU-145 prostate): > 100 µM | TGI (SK-OV-3 ovarian): > 100 µM | TGI (MCF7 breast): > 100 µM | TGI (786-0 renal): > 100 µM | TGI (SF-268 CNS): > 100 µM | TGI (SN12C renal): > 100 µM | TGI (NCI-H226 lung): > 100 µM | TGI (UO-31 renal): > 100 µM

O=S(=O)(O)Nc1ccc(-c2nc3ccccc3s2)cc1Cl
TGI (DU-145 prostate): > 100 µM | TGI (SK-OV-3 ovarian): > 100 µM | TGI (NCI/ADR-RES ovarian): > 100 µM | TGI (786-0 renal): > 100 µM | TGI (SN12C renal): > 100 µM | TGI (NCI-H226 lung): > 100 µM | TGI (UO-31 renal): > 100 µM

COc1ccc(/C=N/n2c(Cc3ccc(Cl)cc3)n[nH]c2=O)cc1
TGI (DU-145 prostate): > 100 µM | TGI (SK-OV-3 ovarian): > 100 µM | TGI (MCF7 breast): > 100 µM | TGI (NCI/ADR-RES ovarian): > 100 µM | TGI (786-0 renal): 54.6 µM | TGI (SN12C renal): > 100 µM | TGI (NCI-H226 lung): > 100 µM | TGI (UO-31 renal): > 100 µM

Cc1ccc(-c2c(C#N)c(S)n(NS(=O)(=O)c3ccccc3)c(=O)c2C#N)cc1
TGI (DU-145 prostate): > 100 µM | TGI (SK-OV-3 ovarian): > 100 µM | TGI (MCF7 breast): > 100 µM | TGI (NCI/ADR-RES ovarian): 39.8 µM | TGI (786-0 renal): > 100 µM | TGI (SN12C renal): > 100 µM | TGI (NCI-H226 lung): 69 µM | TGI (UO-31 renal): 51.4 µM

C=CCN1C(=O)/C(=C/c2cccs2)N=C1SC1OC(COC(=O)c2ccccc2)C(OC(=O)c2ccccc2)C1OC(=O)c1ccccc1 (stereo not given)
TGI (DU-145 prostate): > 100 µM | TGI (SK-OV-3 ovarian): > 100 µM | TGI (MCF7 breast): > 100 µM | TGI (NCI/ADR-RES ovarian): > 100 µM | TGI (NCI-H226 lung): > 100 µM

O=[N+]([O-])c1cccc2nc3ccccc3c(NCCNCCO)c12
TGI (SK-OV-3 ovarian): 0.293 µM and 0.377 µM | TGI (MCF7 breast): 0.0373 µM and 0.0177 µM | GI50 (NCI/ADR-RES ovarian): 0.911 µM | TGI (NCI/ADR-RES ovarian): 2.15 µM and 14.9 µM | TGI (786-0 renal): 0.0259 µM and 0.121 µM | TGI (SN12C renal): 0.173 µM | TGI (NCI-H226 lung): 0.0495 µM and 0.0261 µM | GI50 (UO-31 renal): 0.0448 µM | TGI (UO-31 renal): 0.392 µM and 0.192 µM

CC1(C)N=C(N)N=C(N)N1c1ccc(CCCCc2ccc(Cl)cc2Cl)cc1
TGI (DU-145 prostate): 17.3 µM | TGI (SK-OV-3 ovarian): 24.7 µM | TGI (MCF7 breast): 11.8 µM | TGI (NCI/ADR-RES ovarian): > 100 µM | TGI (786-0 renal): 15.3 µM | TGI (SF-268 CNS): 15.9 µM | TGI (SN12C renal): 12.7 µM | TGI (UO-31 renal): 43.9 µM

Cc1ccc(NNc2cc(=O)[nH]c(=O)[nH]2)cc1Cl
TGI (DU-145 prostate): > 100 µM | TGI (SK-OV-3 ovarian): > 100 µM | TGI (NCI/ADR-RES ovarian): > 100 µM | TGI (786-0 renal): 28 µM | TGI (SF-268 CNS): > 100 µM | TGI (SN12C renal): > 100 µM | TGI (NCI-H226 lung): > 100 µM | TGI (UO-31 renal): 15.3 µM

NNC(=O)CCCCCCCC(=O)O
TGI (DU-145 prostate): > 100 µM | TGI (SK-OV-3 ovarian): > 100 µM | TGI (MCF7 breast): > 100 µM | TGI (NCI/ADR-RES ovarian): > 100 µM | TGI (786-0 renal): > 100 µM | TGI (SN12C renal): > 100 µM | TGI (NCI-H226 lung): > 100 µM | TGI (UO-31 renal): > 100 µM
